Reference: patent publication US9546141B2, “Salts” (Sprout Pharmaceuticals, Inc., priority 2008, dated 2017)

Key:
[1] = Hygroscopicity (IGAsorp water sorption monitor); assay type: physicochemical; details: room temperature
Description: IGAsorp water sorption monitor from Hiden Isochema was used for the analysis of the hygroscopical behaviour at room temperature. • humidity profile: from 10-90% r.h. in steps of 10%, sorption as well as desorption profiles were registered • weight-in quantity: 10-20 mg

[2] = Solubility of the crystalline salt forms in water; assay type: physicochemical; details: shaken 2 hours, filtered, UV-spectroscopy
Description: Solubility of the different crystalline salt forms in water was determined by adding […] of compound into 5 ml of water at room temperature. The mixture was vigorously shaken for 2 hours at room temperature. Afterwards the undissolved solid was removed by filtering through a 0.45 μm PTFE filter, in the filtrate the dissolved amount of compound was determined by UV-spectroscopy.

Row | Structure (SMILES) | hygroscopicity expressed in the uptake of water in the range of 10-90% relative humidity [1] | solubility in water at room temperature [2]
1 | O=C(O)CO.O=c1[nH]c2ccccc2n1CCN1CCN(c2cccc(C(F)(F)F)c2)CC1 [XXXIII, 1-[2-(4-(3-trifluoro-methyl-phenyl)piperazin-1-yl)ethyl]-2,3-dihydro-1H-benzimidazol-2-one glycolate] | 0.20% | 500 µg/mL
2 | CS(=O)(=O)O.O=c1[nH]c2ccccc2n1CCN1CCN(c2cccc(C(F)(F)F)c2)CC1 [VII, 1-[2-(4-(3-trifluoro-methyl-phenyl)piperazin-1-yl)ethyl]-2,3-dihydro-1H-benzimidazol-2-one mesylate] | 3.4% | 1100 µg/mL
3 | CC1(C)C2CCC1(CS(=O)(=O)O)C(=O)C2.O=c1[nH]c2ccccc2n1CCN1CCN(c2cccc(C(F)(F)F)c2)CC1 [XXXII, 1-[2-(4-(3-trifluoro-methyl-phenyl)piperazin-1-yl)ethyl]-2,3-dihydro-1H-benzimidazol-2-one camphorsulfonate] | 0.13% | 700 µg/mL
4 | O=C(O)/C=C/C(=O)O.O=c1[nH]c2ccccc2n1CCN1CCN(c2cccc(C(F)(F)F)c2)CC1 [XXXI, 1-[2-(4-(3-trifluoro-methyl-phenyl)piperazin-1-yl)ethyl]-2,3-dihydro-1H-benzimidazol-2-one fumarate] | 0.28% | 500 µg/mL
5 | O=C(O)C(=O)O.O=c1[nH]c2ccccc2n1CCN1CCN(c2cccc(C(F)(F)F)c2)CC1 [IX, 1-[2-(4-(3-trifluoro-methyl-phenyl)piperazin-1-yl)ethyl]-2,3-dihydro-1H-benzimidazol-2-one oxalate] | 0.7% | 1700 µg/mL
6 | CCS(=O)(=O)O.O=c1[nH]c2ccccc2n1CCN1CCN(c2cccc(C(F)(F)F)c2)CC1 [XV, 1-[2-(4-(3-trifluoro-methyl-phenyl)piperazin-1-yl)ethyl]-2,3-dihydro-1H-benzimidazol-2-one ethansulfonate] | 0.32% | 1300 µg/mL
7 | Cc1ccc(S(=O)(=O)O)cc1.O=c1[nH]c2ccccc2n1CCN1CCN(c2cccc(C(F)(F)F)c2)CC1 [XXX, 1-[2-(4-(3-trifluoro-methyl-phenyl)piperazin-1-yl)ethyl]-2,3-dihydro-1H-benzimidazol-2-one tosylate] | 0.25% | 90 µg/mL
8 | O=S(=O)(O)c1ccccc1.O=c1[nH]c2ccccc2n1CCN1CCN(c2cccc(C(F)(F)F)c2)CC1 [VIII, 1-[2-(4-(3-trifluoro-methyl-phenyl)piperazin-1-yl)ethyl]-2,3-dihydro-1H-benzimidazol-2-one besylate] | 0.15% | 100 µg/mL
9 | O=C1NS(=O)(=O)c2ccccc21.O=c1[nH]c2ccccc2n1CCN1CCN(c2cccc(C(F)(F)F)c2)CC1 [XI, 1-[2-(4-(3-trifluoro-methyl-phenyl)piperazin-1-yl)ethyl]-2,3-dihydro-1H-benzimidazol-2-one sacharinate] | 0.24% | 300 µg/mL
